Some test systems named below: SK-MEL-28; DMS-114; COLO 205; MOLT-4; RPMI-8226; K562; A549; SF-268; OVCAR-3; KM12; UACC-257; HCT-15; HOP-92; NCI-H23; SK-MEL-5; NCI/ADR-RES; NCI-H460; Malme-3M; CAKI-1; NCI-H522.
Holding throughout (test): DTP human tumour cell line panel, 48 h

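All cell lines were grown in 96-well plates and treated with compound for 48 hours. GI50 marks 50% less growth.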 Activity calls are given as the source filed them. No stated cut-off is given here; in the data, active = GI50 up to about 1.1 µM and inactive = higher.

The term GI50 denotes the concentration at which growth is held to half of that of the control. As to `c1ccc(-c2nnc(-c3nsc4ccccc34)o2)cc1`, the GI50 in the assay on SK-MEL-28, with DMS-114, with COLO 205, in the assay with MOLT-4, in the assay with RPMI-8226 and in the assay on K562 was > 100 µM (inactive) throughout. Also, the GI50 in the assay with A549 is > 100 µM (inactive); with SF-268 it was > 100 µM (inactive); in the assay on OVCAR-3 it was > 100 µM (inactive); in the assay on KM12, > 100 µM (inactive); in the assay with UACC-257, > 100 µM (inactive); in the assay with HCT-15, over 100 µM. Besides, the GI50 in the assay on HOP-92 was 18.4 µM (inactive); with NCI-H23, > 100 µM (inactive); in the assay on SK-MEL-5 it was > 100 µM (inactive).
Consider `CN1CCC(C(O)(c2ccccc2)c2ccc(Br)cc2)CC1` (configuration not stated), for which the GI50 with NCI/ADR-RES is 34.9 µM (inactive); with SK-MEL-28, 16.7 µM (inactive); in the assay with COLO 205, 15.3 µM (inactive); in the assay on MOLT-4, 23.1 µM (inactive); with NCI-H460 it was 23.4 µM (inactive); with Malme-3M, 14.5 µM (inactive). Moreover, the GI50 is 17.3 µM (inactive) in the assay with RPMI-8226; 16.7 µM (inactive) in the assay with K562; 26.4 µM (inactive) in the assay with A549; 14 µM (inactive) in the assay with CAKI-1; 31.5 µM (inactive) in the assay with SF-268; 39.4 µM (inactive) with OVCAR-3. The GI50 with KM12 was 18.6 µM (inactive); with UACC-257, 15.4 µM (inactive); with HCT-15, 35.6 µM; in the assay with HOP-92, 8.45 µM (inactive); with NCI-H23, 46.9 µM (inactive); in the assay with NCI-H522, 15.5 µM (inactive). Besides, the GI50 in the assay on SK-MEL-5 was 14.8 µM (inactive).
Take `O=C(Cc1nc2ccc(C(=O)c3ccccc3)cc2nc1O)C(=O)Nc1nc2ccccc2[nH]1`: the GI50 is 98.6 µM (inactive) in the assay with SK-MEL-28; 23.8 µM (inactive) with DMS-114; 36.8 µM (inactive) in the assay on COLO 205; 42.8 µM (inactive) with MOLT-4; 46.5 µM (inactive) in the assay on NCI-H460; 87.9 µM (inactive) in the assay on Malme-3M. Further, the GI50 in the assay on A549 was 50.9 µM (inactive); in the assay with CAKI-1 it was 40.2 µM (inactive); in the assay on SF-268, 67 µM (inactive); in the assay on OVCAR-3 it was 62.5 µM (inactive); in the assay on KM12, 24.6 µM (inactive); in the assay with UACC-257, 84.5 µM (inactive). Also, the GI50 is 75 µM in the assay on HCT-15; 23 µM (inactive) in the assay on HOP-92; 44.6 µM (inactive) with NCI-H23; 30 µM (inactive) in the assay with NCI-H522; 31 µM (inactive) with SK-MEL-5.
`O=C(NN1C(=O)C(Cl)C1c1ccccc1O)c1ccccc1O` (configuration not stated): the GI50 was 22.3 µM (inactive) in the assay on SK-MEL-28; 6.82 µM (inactive) with DMS-114; 21.4 µM (inactive) with COLO 205; 23.2 µM (inactive) in the assay with MOLT-4; 5.33 µM (inactive) in the assay on NCI-H460; 13.9 µM (inactive) in the assay with Malme-3M. For the same compound, the GI50 in the assay with RPMI-8226 was 12.5 µM (inactive); with K562, 32.4 µM (inactive); with A549, 17.8 µM (inactive); in the assay with SF-268 it was 44.1 µM (inactive); with OVCAR-3 it was 3.13 µM (inactive); in the assay on KM12, 7.31 µM (inactive). Besides, the GI50 in the assay on UACC-257 is 22.2 µM (inactive); in the assay with HOP-92, > 100 µM (inactive); with NCI-H23, 42.5 µM (inactive); in the assay on NCI-H522, 29 µM (inactive); with SK-MEL-5 it was 29.4 µM (inactive).
As to `CCOCNC(=O)N(COCC)COCC`, the GI50 with SK-MEL-28, in the assay with DMS-114, in the assay on COLO 205, in the assay on MOLT-4, in the assay with Malme-3M and in the assay on RPMI-8226 was > 100 µM (inactive) each time. The GI50 is > 100 µM (inactive) with K562; > 100 µM (inactive) in the assay with A549; > 100 µM (inactive) in the assay on CAKI-1; > 100 µM (inactive) with SF-268; 33 µM (inactive) in the assay with OVCAR-3; > 100 µM (inactive) in the assay with KM12. Further, the figures for the GI50 in the assay on UACC-257, in the assay on HCT-15 and in the assay on NCI-H522 were > 100 µM (inactive), over 100 µM and > 100 µM (inactive), respectively.
In the case of `CC(Cc1ccccc1)Nc1ncnc2c1ncn2C1OC(CO)CC1O` (configuration not stated), the GI50 in the assay on NCI/ADR-RES, with SK-MEL-28, in the assay on COLO 205, with MOLT-4, in the assay on NCI-H460 and with Malme-3M was > 100 µM (inactive) in each case. The GI50 in the assay with RPMI-8226, with K562, with A549, in the assay with CAKI-1, in the assay on SF-268 and in the assay on OVCAR-3 was > 100 µM (inactive) each time. The GI50 is > 100 µM (inactive) in the assay with KM12; > 100 µM (inactive) in the assay on UACC-257; over 100 µM with HCT-15; > 100 µM (inactive) with HOP-92; > 100 µM (inactive) with NCI-H23; > 100 µM (inactive) in the assay on NCI-H522. Moreover, the GI50 with SK-MEL-5 is > 100 µM (inactive).
As for `CCOC(=O)C(Cc1ccc(N=NN(C)C)cc1)NC(=O)CC1c2ccccc2-c2ccccc21` (configuration not stated), the GI50 with SK-MEL-28 is > 100 µM (inactive); in the assay with DMS-114 it was > 100 µM (inactive); in the assay with COLO 205, 92.7 µM (inactive); in the assay with MOLT-4, 38.3 µM (inactive); in the assay with NCI-H460, 71.6 µM (inactive); with Malme-3M, > 100 µM (inactive). In addition, the GI50 was 41.6 µM (inactive) with RPMI-8226; 75.2 µM (inactive) in the assay on K562; 81.7 µM (inactive) with A549; > 100 µM (inactive) with CAKI-1; > 100 µM (inactive) with SF-268; 36.1 µM (inactive) with OVCAR-3. Moreover, the GI50 in the assay on KM12 is > 100 µM (inactive); with UACC-257, > 100 µM (inactive); with HCT-15, over 100 µM; in the assay on NCI-H23, > 100 µM (inactive); in the assay on NCI-H522, 56.2 µM (inactive); with SK-MEL-5 it was 57 µM (inactive).
Take `CSc1nc2c(c(N3CCOCC3)n1)C(O)n1c(nc3ccccc31)S2` (configuration not stated): the GI50 in the assay on NCI/ADR-RES is 22.6 µM (inactive); with COLO 205 it was 0.055 µM (active); in the assay with MOLT-4 it was > 100 µM (inactive); with NCI-H460, 13.6 µM (inactive); in the assay with Malme-3M, 52.2 µM (inactive); in the assay on RPMI-8226, 4.72 µM (inactive). Moreover, the GI50 with A549 was 29.6 µM (inactive); in the assay on CAKI-1 it was > 100 µM (inactive); with SF-268, 26.2 µM (inactive); in the assay with OVCAR-3 it was 69.2 µM (inactive); with KM12, 53.6 µM (inactive); in the assay with UACC-257, > 100 µM (inactive). In addition, the GI50 is 63 µM with HCT-15; 72.3 µM (inactive) with HOP-92; 67.8 µM (inactive) in the assay on NCI-H23; 24.8 µM (inactive) in the assay on NCI-H522; 3.23 µM (inactive) in the assay on SK-MEL-5.
For `CCc1c(O)c2c(c(O)c1C(C)=O)C(=O)c1c(cc(O)c(C(=O)O)c1C(=O)O)C2=O`, the GI50 in the assay on NCI/ADR-RES, in the assay with SK-MEL-28, in the assay on COLO 205, in the assay on MOLT-4, in the assay on NCI-H460 and in the assay with Malme-3M was > 100 µM (inactive) each time. Further, the GI50 in the assay with RPMI-8226, in the assay on K562, with A549, in the assay on CAKI-1, in the assay on SF-268 and in the assay on OVCAR-3 was > 100 µM (inactive) each time. In addition, the GI50 with KM12 is > 100 µM (inactive); with UACC-257, > 100 µM (inactive); in the assay with HCT-15, over 100 µM; in the assay on HOP-92, > 100 µM (inactive); in the assay on NCI-H23, > 100 µM (inactive); in the assay on NCI-H522, > 100 µM (inactive). Further, the GI50 in the assay with SK-MEL-5 was > 100 µM (inactive).
Consider `O=C(c1ccccc1)c1nc2ccc(Cl)cc2c2c1CCCO2`, for which the GI50 is 33.7 µM (inactive) with SK-MEL-28; > 100 µM (inactive) with DMS-114; > 100 µM (inactive) in the assay on COLO 205; > 100 µM (inactive) in the assay on MOLT-4; > 100 µM (inactive) in the assay on NCI-H460; > 100 µM (inactive) in the assay with Malme-3M. The GI50 with RPMI-8226, with K562, in the assay on CAKI-1, in the assay on SF-268, in the assay with OVCAR-3 and in the assay with KM12 was > 100 µM (inactive) throughout. Moreover, the GI50 was over 100 µM in the assay on HCT-15, 72.8 µM (inactive) with NCI-H23 and > 100 µM (inactive) in the assay on NCI-H522.
With `Cc1cnc(Cl)nc1C(C#N)c1nc2ccccc2s1` (configuration not stated), the GI50 with NCI/ADR-RES was 22 µM (inactive); with SK-MEL-28 it was 69 µM (inactive); with COLO 205, 14.2 µM (inactive); with MOLT-4, 63.5 µM (inactive); in the assay with NCI-H460 it was 30.7 µM (inactive); with Malme-3M it was 9.31 µM (inactive). Further, the GI50 is 12.6 µM (inactive) with RPMI-8226; 29 µM (inactive) with A549; 22.4 µM (inactive) in the assay on CAKI-1; 15.7 µM (inactive) in the assay with SF-268; 25.5 µM (inactive) in the assay on OVCAR-3; 33.8 µM (inactive) with KM12. Moreover, the GI50 is 31.7 µM (inactive) in the assay on UACC-257; 16.6 µM in the assay with HCT-15; 7.33 µM (inactive) with HOP-92; 7 µM (inactive) in the assay on NCI-H23; 2.84 µM (inactive) in the assay with NCI-H522; 5.57 µM (inactive) in the assay with SK-MEL-5.
`NC(=O)CCC(NCc1c2ccccc2[n+]([O-])c2ccccc12)C(=O)O` (configuration not stated): the GI50 is > 100 µM (inactive) with SK-MEL-28; 41.9 µM (inactive) in the assay on DMS-114; > 100 µM (inactive) in the assay on COLO 205; 30 µM (inactive) in the assay on MOLT-4; > 100 µM (inactive) in the assay on NCI-H460; 81.8 µM (inactive) in the assay with Malme-3M. Moreover, the GI50 is 36.1 µM (inactive) with RPMI-8226; 36.3 µM (inactive) with K562; > 100 µM (inactive) with A549; 82.8 µM (inactive) in the assay on CAKI-1; 59.2 µM (inactive) with SF-268; > 100 µM (inactive) with OVCAR-3. Also, the GI50 with KM12 is 65.9 µM (inactive); in the assay on UACC-257, > 100 µM (inactive); in the assay on HCT-15, 34.5 µM; in the assay on NCI-H23, 63 µM (inactive); in the assay with NCI-H522, 70 µM (inactive); in the assay with SK-MEL-5 it was 68.7 µM (inactive).

The record behind these values is ChEMBL document CHEMBL1201862, “PubChem BioAssay data set” (2004).
